The source made the active and inactive calls.
Legend:
[1] = Luminescence-based dose response cell-based high throughput screening assay for cytotoxic compounds using the IEC-6 intestinal epithelial cell line. [Related pubchem assays: 1858 (Summary AID.), 1825 (Counterscreen.), 1907 (Confirmation screen.)]; assay type: functional
cells [2] = assay type: functional, cell-based
[3] = molecular target: Heat shock protein HSP 90-alpha (Homo sapiens, UniProt P07900); assay type: functional, organism-based
[4] = cytotoxicity in HEK-293T cells, dose response, cytotoxicity control for TCR NF-kB inhibitor project, luminescence, T-cell screen hits (AID 489026); assay type: functional, cell-based;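 also: cells exposed to compound about 14 hours before the viability readout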
[5] = Shn3 3'UTR reporter inhibitors, dose response, cell-based, Clone20 osteoblasts, firefly luciferase, cherry-picked (AID 624132); assay type: functional;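 also: firefly luciferase luminescence from reporter carrying the Shn3 3'UTR in osteoblasts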
[6] = control 3'UTR Renilla luciferase suppression, dose response, counter-screen for Shn3 inhibitor project, cell-based, Clone20-Shn3RL, cherry-picked (AID 624133); assay type: functional
HEK293 [7] = test: cytotoxicity in HEK293T NF-kB-Luc cells, SAR follow-up, cytotoxicity control for NF-kB activator project, cell-based, resazurin fluorescence (AID 493251); assay type: functional; details: Homo sapiens
[8] = molecular target: Serine/threonine-protein phosphatase (Candida dubliniensis (strain CD36 / CBS 7987 / NCPF 3949 / NRRLY-17841) (Yeast), UniProt B9W6M3); test: calcineurin pathway inhibitors in yeast reporter, dose response, S. cerevisiae, CDRE-lacZ, luminescence, secondary (AID 2388); assay type: functional, cell-based;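 also: yeast reporter cells carrying a calcineurin-responsive lacZ construct stimulated with calcium chloride; luminescent beta-galactosidase reporter signal in whole cells rather than isolated phosphatase activity; potency for inhibition where a drop in reporter signal means calcineurin blockade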
Jurkat = test: SAR Analysis of small molecule inhibitors of T-cell specific antigen receptor-induced NF-kB activation in a Jurkat cell line using a luminescence assay - Set 2. [Related pubchem assays (depositor defined):AID435003, AID435012, AID465]; assay type: functional, cell-based; details: Homo sapiens
INS1 = test: beta cell apoptosis inhibitors, cytokine rescue, dose response, luminescence, retest (AID 449756); assay type: functional, cell-based; details: Rattus norvegicus;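 also: cell death triggered by IL-1 beta plus TNF-alpha plus IFN-gamma mixture; protective hits raise ATP signal compared with cytokine alone wells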
HEK293 [9] = test: inhibitors of LMP1-driven NF-kB reporter, dose response, cell-based, HEK293, luciferase, cherry-pick (AID 588343); assay type: functional; details: Homo sapiens
HEK293 [10] = test: SAR Analysis of small molecule inhibitors of T-cell specific antigen receptor-induced NF-kB activation in a HEK-293T cell line using a luminescence assay - Set 2. [Related pubchem assays (depositor defined):AID435003, AID435012, AID489026]; assay type: functional, cell-based; details: Homo sapiens
cells [11] = assay type: functional, cell-based; remark: listed apart in the source
BJ [12] = test: cytotoxicity toward BJ-TERT-LT-ST fibroblasts, dose response, cell-based, RAS-independent, luminescence (AID 1935); assay type: functional; details: Homo sapiens;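 also: BJ fibroblasts immortalized with TERT plus LT and ST oncogenes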
[13] = molecular target: ATP-dependent molecular chaperone HSP82 (Candida albicans (strain WO-1) (Yeast), UniProt C4YTQ8); test: loss of DOC-induced GRE-beta-galactosidase reporter signal, dose response, Hsp90 inhibitor project, S. cerevisiae, luminescence (AID 2400); assay type: functional, cell-based;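 also: beta-galactosidase luminescence from glucocorticoid response element reporter as proxy for Hsp90 function; inhibitor potency where signal loss means Hsp90 inhibition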
BJ [14] = test: cytotoxicity toward BJ-TERT fibroblasts, dose response, cell-based, RAS-independent, luminescence (AID 1933); assay type: functional; details: Homo sapiens
[15] = cytotoxicity toward DRD oncogenic fibroblasts, dose response, cell-based, non-viral oncogenic, luminescence (AID 1934); assay type: functional; details: Homo sapiens
[16] = HepG2 cell cytotoxicity, dose response, cytotoxicity control for Shn3 inhibitor project, CellTiter-Glo, cherry-picked (AID 624134); assay type: functional, cell-based
[17] = NIH-3T3 fibroblast cytotoxicity, dose response, cytotoxicity control, cell-based, fluorescence, Alamar Blue, secondary assay (AID 2327); assay type: functional;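 also: NIH-3T3 mouse fibroblasts cultured with fluconazole at 8 µg/mL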
[18] = C. albicans growth with fluconazole, confirmation, fluorescence, retest (AID 2467); assay type: functional, cell-based
BJ [19] = test: cells; assay type: functional, cell-based; details: Homo sapiens
[20] = molecular target: Sphingosine 1-phosphate receptor 1 (Homo sapiens, UniProt P21453); assay type: functional;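 also: Tango beta-arrestin reporter U2OS cells stimulated with S1P near its EC80; inhibitor potency meaning antagonism of receptor activation by the natural agonist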
[21] = molecular target: T1, Sphingosine 1-phosphate receptor 4 (Homo sapiens, UniProt O95977); test: Late stage fluorescence dose response cell-based screening assay for antagonists of the Sphingosine 1-Phosphate Receptor 4 (S1P4). [Related pubchem assays: 1524 (Confirmation screen (S1P4 antagonists).), 1510 (Primary screen (S1P4 antagonists).), 1853 (Summary AID (S1P4 antagonists).), 1692 (Dose response screen (S1P4 antagonists).)]; assay type: functional
T1 sequence (O95977 whole entry, the tested form may be a part): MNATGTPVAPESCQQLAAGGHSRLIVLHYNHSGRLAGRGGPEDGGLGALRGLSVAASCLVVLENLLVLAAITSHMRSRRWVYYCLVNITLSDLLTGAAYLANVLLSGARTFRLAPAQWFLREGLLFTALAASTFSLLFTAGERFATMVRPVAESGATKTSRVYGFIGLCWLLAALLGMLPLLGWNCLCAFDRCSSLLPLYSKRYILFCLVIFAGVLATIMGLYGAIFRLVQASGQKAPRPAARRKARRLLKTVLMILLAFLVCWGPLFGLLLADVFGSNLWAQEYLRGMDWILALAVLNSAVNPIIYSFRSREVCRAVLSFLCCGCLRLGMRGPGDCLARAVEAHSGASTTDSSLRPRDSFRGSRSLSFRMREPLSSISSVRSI

Fatty acid synthase [22] = molecular target: T2, Fatty acid synthase (Homo sapiens, UniProt P49327); test: FAS thioesterase domain inhibitors, dose response, biochemical, kinetic fluorescence intensity (AID 624326); assay type: functional;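 also: rate of fluorescence rise from hydrolysis of a fluorogenic O-methyl fluorescein ester substrate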
T2 sequence (P49327 whole entry, the tested form may be a part): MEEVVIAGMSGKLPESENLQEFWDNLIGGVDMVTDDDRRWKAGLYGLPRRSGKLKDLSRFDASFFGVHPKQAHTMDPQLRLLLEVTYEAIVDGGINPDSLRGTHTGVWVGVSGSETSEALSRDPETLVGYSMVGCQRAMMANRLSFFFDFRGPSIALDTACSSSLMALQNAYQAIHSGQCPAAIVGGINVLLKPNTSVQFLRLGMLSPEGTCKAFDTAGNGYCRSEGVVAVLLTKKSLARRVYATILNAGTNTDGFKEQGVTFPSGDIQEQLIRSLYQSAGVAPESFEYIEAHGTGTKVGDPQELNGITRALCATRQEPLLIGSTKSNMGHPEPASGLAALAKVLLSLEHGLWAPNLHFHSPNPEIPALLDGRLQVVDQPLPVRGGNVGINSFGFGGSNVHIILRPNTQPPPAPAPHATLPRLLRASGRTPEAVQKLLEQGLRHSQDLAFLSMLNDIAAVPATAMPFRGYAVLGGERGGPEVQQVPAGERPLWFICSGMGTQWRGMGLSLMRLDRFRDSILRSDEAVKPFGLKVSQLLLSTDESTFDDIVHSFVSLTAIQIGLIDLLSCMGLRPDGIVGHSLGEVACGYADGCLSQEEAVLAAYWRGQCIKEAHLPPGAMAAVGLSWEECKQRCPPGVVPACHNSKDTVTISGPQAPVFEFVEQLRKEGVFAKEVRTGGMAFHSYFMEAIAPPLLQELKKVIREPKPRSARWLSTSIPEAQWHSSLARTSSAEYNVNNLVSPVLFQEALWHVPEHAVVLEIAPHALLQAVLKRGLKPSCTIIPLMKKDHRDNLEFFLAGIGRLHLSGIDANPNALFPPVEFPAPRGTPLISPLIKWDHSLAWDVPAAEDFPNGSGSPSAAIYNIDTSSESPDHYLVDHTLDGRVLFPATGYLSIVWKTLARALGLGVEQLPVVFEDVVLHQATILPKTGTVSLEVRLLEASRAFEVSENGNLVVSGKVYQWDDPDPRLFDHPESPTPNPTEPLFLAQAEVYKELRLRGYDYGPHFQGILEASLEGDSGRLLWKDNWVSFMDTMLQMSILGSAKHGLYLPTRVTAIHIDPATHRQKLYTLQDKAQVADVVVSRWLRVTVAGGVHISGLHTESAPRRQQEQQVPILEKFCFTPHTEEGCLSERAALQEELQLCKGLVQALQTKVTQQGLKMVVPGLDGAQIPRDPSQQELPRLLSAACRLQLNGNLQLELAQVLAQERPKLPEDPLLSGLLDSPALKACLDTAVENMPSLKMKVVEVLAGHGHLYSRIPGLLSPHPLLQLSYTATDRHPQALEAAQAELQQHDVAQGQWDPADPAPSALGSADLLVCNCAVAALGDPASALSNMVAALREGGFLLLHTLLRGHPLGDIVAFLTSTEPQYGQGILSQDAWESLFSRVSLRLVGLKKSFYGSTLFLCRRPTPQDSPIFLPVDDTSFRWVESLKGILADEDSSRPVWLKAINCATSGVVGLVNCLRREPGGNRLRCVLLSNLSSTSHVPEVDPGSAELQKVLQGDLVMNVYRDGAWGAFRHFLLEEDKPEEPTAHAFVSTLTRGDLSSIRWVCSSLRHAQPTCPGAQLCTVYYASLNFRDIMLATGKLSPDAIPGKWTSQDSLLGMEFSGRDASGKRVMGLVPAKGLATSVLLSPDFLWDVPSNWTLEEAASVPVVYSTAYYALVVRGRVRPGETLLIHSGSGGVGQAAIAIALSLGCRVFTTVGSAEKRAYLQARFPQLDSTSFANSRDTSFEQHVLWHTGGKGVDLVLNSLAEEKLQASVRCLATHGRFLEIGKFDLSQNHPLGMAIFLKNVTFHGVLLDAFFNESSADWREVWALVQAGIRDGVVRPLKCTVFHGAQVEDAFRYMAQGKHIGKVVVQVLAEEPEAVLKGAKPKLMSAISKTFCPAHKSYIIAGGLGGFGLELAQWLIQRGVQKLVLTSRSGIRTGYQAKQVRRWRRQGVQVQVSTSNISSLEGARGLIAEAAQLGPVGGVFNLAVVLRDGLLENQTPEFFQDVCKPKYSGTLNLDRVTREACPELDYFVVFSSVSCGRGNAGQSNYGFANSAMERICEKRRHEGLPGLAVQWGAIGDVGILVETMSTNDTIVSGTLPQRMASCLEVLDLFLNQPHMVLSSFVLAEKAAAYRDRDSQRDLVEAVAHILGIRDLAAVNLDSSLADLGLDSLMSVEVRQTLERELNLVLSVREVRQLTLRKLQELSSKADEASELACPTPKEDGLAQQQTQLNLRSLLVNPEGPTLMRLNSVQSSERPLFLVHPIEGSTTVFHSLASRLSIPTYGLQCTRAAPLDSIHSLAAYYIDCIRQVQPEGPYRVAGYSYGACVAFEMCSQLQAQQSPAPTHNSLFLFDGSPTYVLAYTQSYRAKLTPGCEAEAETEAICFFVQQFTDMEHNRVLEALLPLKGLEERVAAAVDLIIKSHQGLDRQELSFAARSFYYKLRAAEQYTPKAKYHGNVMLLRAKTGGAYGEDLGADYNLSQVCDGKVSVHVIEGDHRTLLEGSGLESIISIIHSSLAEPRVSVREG

Protein RecA = molecular target: T3, Protein RecA (Mycobacterium tuberculosis, UniProt P9WHJ3); test: Fluorescence Cell-Free Homogeneous Dose Retest to Identify Inhibitors of RecA-Intein Splicing Activity. [Related pubchem assays (depositor defined):AID2097, AID2223, AID489010, AID492950]; assay type: functional
T3 sequence (P9WHJ3 whole entry): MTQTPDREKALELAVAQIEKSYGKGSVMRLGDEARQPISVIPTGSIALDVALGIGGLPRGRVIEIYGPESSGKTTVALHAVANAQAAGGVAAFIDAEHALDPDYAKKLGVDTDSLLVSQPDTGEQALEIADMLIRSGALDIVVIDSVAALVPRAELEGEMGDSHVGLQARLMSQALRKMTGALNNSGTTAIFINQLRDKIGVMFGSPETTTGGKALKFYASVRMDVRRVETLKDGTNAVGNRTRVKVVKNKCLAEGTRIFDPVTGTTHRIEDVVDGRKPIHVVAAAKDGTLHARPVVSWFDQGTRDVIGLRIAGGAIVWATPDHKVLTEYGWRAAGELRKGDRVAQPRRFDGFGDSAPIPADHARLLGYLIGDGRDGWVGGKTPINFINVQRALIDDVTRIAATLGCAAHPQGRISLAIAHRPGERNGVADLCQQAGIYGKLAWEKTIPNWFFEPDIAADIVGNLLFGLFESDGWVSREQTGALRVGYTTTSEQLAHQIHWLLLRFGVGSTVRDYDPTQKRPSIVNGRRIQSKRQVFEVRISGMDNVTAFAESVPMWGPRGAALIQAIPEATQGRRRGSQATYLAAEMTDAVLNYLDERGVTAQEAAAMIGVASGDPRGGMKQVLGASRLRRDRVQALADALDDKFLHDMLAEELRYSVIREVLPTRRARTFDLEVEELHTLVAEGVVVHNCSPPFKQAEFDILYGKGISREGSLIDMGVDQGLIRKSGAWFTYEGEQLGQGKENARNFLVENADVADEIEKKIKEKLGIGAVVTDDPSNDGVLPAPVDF

[23] = Luminescent dose response cell-based high throughput screening assay for inhibitors of the Janus kinase 2 mutant JAK2V617F. [Related pubchem assays: 1446 (Primary screen.), 1521 (Confirmation assay.), 1486 (Counter screen.)]; assay type: functional
Fatty acid synthase [24] = molecular target: T2, Fatty acid synthase; test: FAS thioesterase domain inhibitors, dose response, biochemical, endpoint fluorescence intensity, uHTS hits (AID 624327); assay type: functional;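 also: fluorescence from hydrolysis of an O-methyl fluorescein acyl ester substrate by the enzyme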
[25] = molecular target: T4, Replicative DNA helicase DnaB (Mycobacterium tuberculosis, UniProt P9WMR3); test: DnaB intein splicing inhibitors, dose response, biochemical, cell-free fluorescence (AID 449749); assay type: functional
T4 sequence (P9WMR3 whole entry): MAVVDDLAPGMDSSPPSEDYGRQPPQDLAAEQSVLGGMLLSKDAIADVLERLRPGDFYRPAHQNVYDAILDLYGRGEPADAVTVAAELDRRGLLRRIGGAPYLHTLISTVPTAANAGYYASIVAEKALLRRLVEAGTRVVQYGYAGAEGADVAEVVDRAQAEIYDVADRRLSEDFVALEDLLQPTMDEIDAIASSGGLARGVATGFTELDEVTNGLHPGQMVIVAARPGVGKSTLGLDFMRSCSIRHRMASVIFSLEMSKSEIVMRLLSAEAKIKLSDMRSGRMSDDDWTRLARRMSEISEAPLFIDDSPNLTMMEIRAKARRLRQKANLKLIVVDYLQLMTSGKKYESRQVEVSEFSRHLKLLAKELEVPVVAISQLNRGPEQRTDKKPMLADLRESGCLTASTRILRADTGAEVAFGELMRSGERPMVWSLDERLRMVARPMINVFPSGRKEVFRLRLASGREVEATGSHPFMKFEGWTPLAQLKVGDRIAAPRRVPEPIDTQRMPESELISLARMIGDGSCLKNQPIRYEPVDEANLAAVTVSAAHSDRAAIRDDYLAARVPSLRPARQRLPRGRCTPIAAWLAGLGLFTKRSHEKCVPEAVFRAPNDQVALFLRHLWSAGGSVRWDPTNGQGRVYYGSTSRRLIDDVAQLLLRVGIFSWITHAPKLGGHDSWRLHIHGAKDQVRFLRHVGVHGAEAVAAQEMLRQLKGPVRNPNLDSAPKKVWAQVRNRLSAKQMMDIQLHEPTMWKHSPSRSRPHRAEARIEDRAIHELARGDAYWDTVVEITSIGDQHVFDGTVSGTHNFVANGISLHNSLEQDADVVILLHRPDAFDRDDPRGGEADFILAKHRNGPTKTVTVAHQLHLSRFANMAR

[26] = molecular target: T1, Sphingosine 1-phosphate receptor 4; test: Fluorescence dose response cell-based high throughput screening assay for antagonists of the Sphingosine 1-Phosphate Receptor 4 (S1P4). [Related pubchem assays: 1524 (Confirmation in triplicates.), 1510 (Primary screen.)]; assay type: functional
[27] = molecular target: Beta-2 adrenergic receptor (Homo sapiens, UniProt P07550); test: beta2AR agonists driving receptor internalization, dose response, cell-based, FAP fluorogen, flow cytometry, cherry pick 1 (AID 588763); assay type: functional
Sequence of Beta-2 adrenergic receptor (P07550 whole entry): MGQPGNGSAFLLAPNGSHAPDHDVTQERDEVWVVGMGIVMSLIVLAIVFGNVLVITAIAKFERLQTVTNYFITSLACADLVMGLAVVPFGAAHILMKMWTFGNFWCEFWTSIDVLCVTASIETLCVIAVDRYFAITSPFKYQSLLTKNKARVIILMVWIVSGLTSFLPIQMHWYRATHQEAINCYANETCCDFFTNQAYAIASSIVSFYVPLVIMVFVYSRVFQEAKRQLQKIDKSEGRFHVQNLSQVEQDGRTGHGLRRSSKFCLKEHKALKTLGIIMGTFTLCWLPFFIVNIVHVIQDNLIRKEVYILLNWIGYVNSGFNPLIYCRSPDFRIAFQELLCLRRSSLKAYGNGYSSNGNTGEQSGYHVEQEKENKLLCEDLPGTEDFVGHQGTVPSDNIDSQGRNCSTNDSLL

Vero = Vero cell cytotoxicity, cytotoxicity control for flavivirus capping enzyme inhibitors (AID 588742); assay type: functional; details: Chlorocebus sabaeus
[28] = molecular target: G-protein coupled receptor 55 (Homo sapiens, UniProt Q9Y2T6); test: GPR55 agonists via beta-arrestin recruitment, primary screen, imaging, U2OS cells, beta-arrestin-GFP redistribution (AID 1961); assay type: functional
[29] = molecular target: DNA (cytosine-5)-methyltransferase 1 (Homo sapiens, UniProt P26358); test: DNMT1 methyltransferase inhibitors, confirmation, biochemical, fluorescent molecular beacon (AID 602386); assay type: functional
Sequence of DNA (cytosine-5)-methyltransferase 1 (P26358 whole entry): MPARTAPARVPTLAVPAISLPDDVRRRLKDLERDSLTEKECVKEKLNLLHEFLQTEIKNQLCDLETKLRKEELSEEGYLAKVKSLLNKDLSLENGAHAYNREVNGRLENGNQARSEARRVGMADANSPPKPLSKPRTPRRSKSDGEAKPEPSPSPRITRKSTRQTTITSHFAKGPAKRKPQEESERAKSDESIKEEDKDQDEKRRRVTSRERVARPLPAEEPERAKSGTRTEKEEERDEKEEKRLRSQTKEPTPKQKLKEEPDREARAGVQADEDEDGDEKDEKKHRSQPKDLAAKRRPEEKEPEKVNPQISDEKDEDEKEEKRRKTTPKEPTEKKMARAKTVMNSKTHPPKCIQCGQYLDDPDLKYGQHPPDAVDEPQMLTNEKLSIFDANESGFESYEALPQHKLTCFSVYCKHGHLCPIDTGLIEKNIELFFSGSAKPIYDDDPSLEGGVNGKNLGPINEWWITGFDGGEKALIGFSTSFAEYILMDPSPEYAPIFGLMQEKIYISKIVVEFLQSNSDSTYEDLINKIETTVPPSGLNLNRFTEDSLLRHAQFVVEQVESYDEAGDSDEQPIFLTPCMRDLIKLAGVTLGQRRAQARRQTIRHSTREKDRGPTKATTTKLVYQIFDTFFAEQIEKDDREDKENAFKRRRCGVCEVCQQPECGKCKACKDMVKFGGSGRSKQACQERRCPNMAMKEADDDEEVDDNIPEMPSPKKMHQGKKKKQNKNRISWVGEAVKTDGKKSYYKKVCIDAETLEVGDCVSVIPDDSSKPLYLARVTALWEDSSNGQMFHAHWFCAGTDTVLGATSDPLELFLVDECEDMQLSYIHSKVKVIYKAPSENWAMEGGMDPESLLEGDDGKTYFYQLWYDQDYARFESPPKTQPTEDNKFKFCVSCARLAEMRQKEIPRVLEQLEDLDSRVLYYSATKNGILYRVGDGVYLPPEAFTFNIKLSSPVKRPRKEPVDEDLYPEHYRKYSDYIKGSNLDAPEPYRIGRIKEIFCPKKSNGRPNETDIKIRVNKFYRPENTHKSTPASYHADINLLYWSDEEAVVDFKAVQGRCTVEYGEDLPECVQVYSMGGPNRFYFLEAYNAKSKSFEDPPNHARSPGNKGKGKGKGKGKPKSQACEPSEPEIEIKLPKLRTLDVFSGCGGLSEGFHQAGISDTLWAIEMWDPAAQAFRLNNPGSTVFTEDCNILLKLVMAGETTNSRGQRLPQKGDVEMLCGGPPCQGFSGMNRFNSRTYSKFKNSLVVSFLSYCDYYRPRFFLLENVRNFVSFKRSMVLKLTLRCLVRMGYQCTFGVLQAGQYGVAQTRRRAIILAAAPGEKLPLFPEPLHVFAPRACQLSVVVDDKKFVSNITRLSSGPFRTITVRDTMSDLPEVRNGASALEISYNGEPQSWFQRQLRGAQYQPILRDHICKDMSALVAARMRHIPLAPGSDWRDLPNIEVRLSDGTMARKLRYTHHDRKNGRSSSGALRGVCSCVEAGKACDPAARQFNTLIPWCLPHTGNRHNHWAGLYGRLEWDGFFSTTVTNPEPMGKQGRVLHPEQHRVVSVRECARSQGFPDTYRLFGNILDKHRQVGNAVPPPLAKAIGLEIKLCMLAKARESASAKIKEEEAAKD

Hexokinase HKDC1 = molecular target: T5, Hexokinase HKDC1 (Homo sapiens, UniProt Q2TB90); test: HKDC1 hexokinase inhibitors, dose response, biochemical, W721R variant (AID 504729); assay type: functional
T5 sequence (Q2TB90 whole entry): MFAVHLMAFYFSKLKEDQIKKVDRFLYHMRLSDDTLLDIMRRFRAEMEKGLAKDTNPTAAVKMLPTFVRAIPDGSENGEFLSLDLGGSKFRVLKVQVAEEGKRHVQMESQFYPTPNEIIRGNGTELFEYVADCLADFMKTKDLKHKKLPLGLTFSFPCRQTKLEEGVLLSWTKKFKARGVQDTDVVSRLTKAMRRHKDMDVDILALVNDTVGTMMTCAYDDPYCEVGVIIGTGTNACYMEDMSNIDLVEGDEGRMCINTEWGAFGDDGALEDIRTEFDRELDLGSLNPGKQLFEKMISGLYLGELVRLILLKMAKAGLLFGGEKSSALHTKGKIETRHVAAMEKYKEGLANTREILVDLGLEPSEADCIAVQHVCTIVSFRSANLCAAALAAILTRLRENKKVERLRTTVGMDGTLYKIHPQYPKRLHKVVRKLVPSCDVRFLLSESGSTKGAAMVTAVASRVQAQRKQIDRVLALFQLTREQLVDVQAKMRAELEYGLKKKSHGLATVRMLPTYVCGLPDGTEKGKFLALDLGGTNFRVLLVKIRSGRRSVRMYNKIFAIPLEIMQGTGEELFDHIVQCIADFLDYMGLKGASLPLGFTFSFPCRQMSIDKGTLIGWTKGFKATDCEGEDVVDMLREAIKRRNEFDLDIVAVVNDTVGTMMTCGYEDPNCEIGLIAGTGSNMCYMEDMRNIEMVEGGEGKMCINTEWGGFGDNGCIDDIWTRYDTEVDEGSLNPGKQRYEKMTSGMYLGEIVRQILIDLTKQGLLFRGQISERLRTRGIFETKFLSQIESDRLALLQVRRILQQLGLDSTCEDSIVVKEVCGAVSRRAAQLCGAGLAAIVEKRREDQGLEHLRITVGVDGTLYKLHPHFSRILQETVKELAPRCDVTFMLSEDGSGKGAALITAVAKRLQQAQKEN

Compound: CCCC(=O)NC(c1ccccc1Cl)c1ccc2cccnc2c1O (stereo not given)
- IC50 [1]: 1.44 µM (active)
- EC50 (cells [2]): 6.59 µM (active)
- AC50 [3]: 4.09 µM (active)
- IC50 [4]: > 80 µM (inactive)
- AC50 [5]: 1.21 µM (active)
- AC50 [6]: 1.27 µM (active)
- IC50 (HEK293 [7]): 9.95 µM (active)
- EC50 [8]: > 180 µM (inactive)
- IC50 (Jurkat): 4.29 µM (active)
- AC50 (INS1): 0.63 µM (active)
- AC50 (HEK293 [9]): 5.2 µM (active)
- IC50 (HEK293 [10]): 7.04 µM (active)
- EC50 (cells [11]): > 350 µM (not active)
- EC50 (BJ [12]): 2.49 µM (active)
- EC50 [13]: > 150 µM (inactive)
- EC50 (BJ [14]): 1.12 µM (active)
- EC50 [15]: 1.86 µM (inconclusive)
- AC50 [16]: 2.66 µM (active)
- EC50 [17]: 14.6 µM (active)
- EC50 [18]: 0.656 µM (active)
- EC50 (BJ [19]): 7.5 µM (active)

Compound: CCCC(=O)N(C1CC(C)C(C#N)(C#N)C1(C#N)C#N)N(C)C (stereo not given)
- IC50 [20]: > 49.8 µM (not active)
- IC50 [21]: 9.68 µM (not active)
- IC50 (Fatty acid synthase [22]): 8.51 µM (active)
- EC50 (Protein RecA): 1.34 µM (active)
- IC50 [23]: 0.562 µM (active)
- IC50 (Fatty acid synthase [24]): 8.18 µM (active)
- AC50 [25]: 1.61 µM (active)
- IC50 [26]: 2.42 µM (active)
- EC50 [27]: 35 µM (inactive)

Compound: CCOC(=O)c1c(-n2c(C)cc(C=C3C(=O)NC(=S)NC3=O)c2C)sc2c1CCCC2
- CC50 (Vero): 11.9 µM (active)
- AC50 [3]: 2.61 µM (active)
- EC50 [28]: > 32 µM (inactive)
- IC50 [29]: 10 µM (active)
- IC50 (Hexokinase HKDC1): 23.1 µM (inactive)
